Columns and labels:
[1] = target: T1, Human Indoleamine 2,3-dioxygenase (IDO) (Homo sapiens, UniProt P14902); assay: Human IDO enzymatic assay (kynurenine level); type: biochemical; conditions: 6 nM IDO, 10 μM L-Trp; geometric mean; read-out: IDO1 GMean: IC50 (μM) (Biochemical Assay)
T1 construct: His tag (N); made in house; host or cells: E. coli
Method in brief: (§1)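 N-His human IDO (6 nM, 10 μM L-Trp, 5 μM methylene blue, 20 min) or TDO (1 nM, 350 μM L-Trp, 0.4 μM methylene blue, 70 min) run at room temp in pH 6.5 phosphate with ascorbate, catalase, Tween 20. TCA stop, 30 min 50 °C converts N-formylkynurenine to kynurenine; IC50 by nonlinear regression.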

[2] = target: T2, Human Tryptophan 2,3-dioxygenase (TDO) (Homo sapiens, UniProt P48775); assay: Human TDO enzymatic assay (kynurenine level); type: biochemical; conditions: 1 nM TDO, 350 μM L-Trp; geometric mean; read-out: TDO GMean: IC50 (μM) (Biochemical Assay)
T2 construct: His tag (N); made in house; host or cells: E. coli
T2 sequence (P48775 whole entry): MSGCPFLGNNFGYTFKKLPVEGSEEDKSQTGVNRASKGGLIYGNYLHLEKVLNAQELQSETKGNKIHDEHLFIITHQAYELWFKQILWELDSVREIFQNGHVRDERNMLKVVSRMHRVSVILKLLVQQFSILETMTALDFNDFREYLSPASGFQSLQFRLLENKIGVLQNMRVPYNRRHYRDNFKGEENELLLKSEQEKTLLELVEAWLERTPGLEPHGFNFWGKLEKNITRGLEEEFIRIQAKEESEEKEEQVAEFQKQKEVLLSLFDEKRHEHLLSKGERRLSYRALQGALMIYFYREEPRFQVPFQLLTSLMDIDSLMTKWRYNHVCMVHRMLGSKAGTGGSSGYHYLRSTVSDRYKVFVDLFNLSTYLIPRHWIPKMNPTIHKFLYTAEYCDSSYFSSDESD
Method in brief: as §1

[3] = target: T3, human IDO (IDO1-expressing HEK293 cells) (Homo sapiens, UniProt P14902); assay: Cell based kynurenine assay, IDO1-expressing HEK293 cell clones; conditions: IDO1-expressing HEK293 cells, 24 hours incubation; geometric mean; read-out: HEK293 IDO1 Kynurenine GMean IC50 (μM) (Cellular Assay)
T3 construct: expressed in transfected cells
T3 sequence (P14902 whole entry): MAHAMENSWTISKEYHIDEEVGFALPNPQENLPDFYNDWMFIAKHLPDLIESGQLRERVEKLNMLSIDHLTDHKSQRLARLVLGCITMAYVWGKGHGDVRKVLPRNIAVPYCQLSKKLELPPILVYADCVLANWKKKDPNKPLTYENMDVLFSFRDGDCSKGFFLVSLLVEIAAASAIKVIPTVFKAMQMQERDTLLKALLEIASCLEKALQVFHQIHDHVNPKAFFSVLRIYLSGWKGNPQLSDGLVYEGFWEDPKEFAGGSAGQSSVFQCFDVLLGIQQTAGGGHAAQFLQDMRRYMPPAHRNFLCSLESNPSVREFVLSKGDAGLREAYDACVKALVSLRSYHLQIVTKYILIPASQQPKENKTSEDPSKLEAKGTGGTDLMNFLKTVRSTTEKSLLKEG
Method in brief: (§2)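 HEK293 stable clones (hIDO1 or hTDO, CMV-driven; G418-selected); 2.5×10^4 cells/well; compound serial dilution, 24 h, 37 °C, 5% CO2; supernatant kynurenine; IC50 by nonlinear fit.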

[4] = target: T4, human TDO (TDO-expressing HEK293 cells) (Homo sapiens, UniProt P48775); assay: Cell based kynurenine assay, TDO-expressing HEK293 cell clones; conditions: TDO-expressing HEK293 cells, 24 hours incubation; geometric mean; read-out: HEK293 TDO Kynurenine GMean IC50 (μM) (Cellular Assay)
T4 construct: expressed in transfected cells
T4 sequence (P48775 whole entry): as the sequence (P48775 whole entry) above
Method in brief: as §2

T1 sequence (P14902 whole entry): as the sequence (P14902 whole entry) above

IC50 [1] [µM] | IC50 [2] [µM] | IC50 [3] [µM] | IC50 [4] [µM] | SMILES
0.0001 to 10 | 0.0001 to 10 | 0.0001 to 10 | 0.0001 to 10 | CC(C)(C1CCN(C(=O)NC2CCC2)CC1)C(O)c1cc(Cl)cc2cn[nH]c12 (centres unmarked) [Compound P-0387, 4-(1-(5-chloro-1H-indazol-7-yl)-1-hydroxy-2-methylpropan-2-yl)-N-cyclobutylpiperidine-1-carboxamide]
0.0001 to 10 | 0.0001 to 10 | 0.0001 to 10 | 0.0001 to 10 | COCCNC(=O)N1CCC(C(C)(C)C(O)c2cc(Cl)cc3cn[nH]c23)CC1 (centres unmarked) [Compound P-0388, 4-(1-(5-chloro-1H-indazol-7-yl)-1-hydroxy-2-methylpropan-2-yl)-N-(2-methoxyethyl) piperidine-1-carboxamide]
0.0001 to 10 | 0.0001 to 10 | 0.0001 to 10 | 0.0001 to 10 | CC(C)(C1CCN(C(=O)Nc2ccccn2)CC1)C(O)c1cc(Cl)cc2cn[nH]c12 (centres unmarked) [Compound P-0389, 4-(1-(5-chloro-1H-indazol-7-yl)-1-hydroxy-2-methylpropan-2-yl)-N-(pyridin-2-yl)piperidine-1-carboxamide]
0.0001 to 10 | 0.0001 to 10 | 0.0001 to 10 | 0.0001 to 10 | CC(C)(C1CCN(C(=O)Nc2ccnc(N3CCOCC3)c2)CC1)C(O)c1cc(Cl)cc2cn[nH]c12 (centres unmarked) [Compound P-0390, 4-(1-(5-chloro-1H-indazol-7-yl)-1-hydroxy-2-methylpropan-2-yl)-N-(2-morpholinopyridin-4-yl)piperidine-1-carboxamide]
0.0001 to 10 | 0.0001 to 10 | 0.0001 to 10 | 0.0001 to 10 | CC(C)(C1CCN(C(=O)N2CCOCC2)CC1)C(O)c1cc(Cl)cc2cn[nH]c12 (centres unmarked) [Compound P-0391, (4-(1-(5-chloro-1H-indazol-7-yl)-1-hydroxy-2-methylpropan-2-yl)piperidin-1-yl)(morpholino) methanone]
0.0001 to 10 | 0.0001 to 10 | 0.0001 to 10 | 0.0001 to 10 | Cc1noc(C)c1NC(=O)N1CCC(C(C)(C)C(O)c2cc(Cl)cc3cn[nH]c23)CC1 (centres unmarked) [Compound P-0392, 4-(1-(5-chloro-1H-indazol-7-yl)-1-hydroxy-2-methylpropan-2-yl)-N-(3,5-dimethylisoxazol-4-yl)piperidine-1-carboxamide]
0.0001 to 10 | 0.0001 to 10 | 0.0001 to 10 | 0.0001 to 10 | CC(C)(C1CCN(C(=O)Nc2ccc(Cl)c(C(F)(F)F)c2)CC1)C(O)c1cc(Cl)cc2cn[nH]c12 (centres unmarked) [Compound P-0393, 4-(1-(5-chloro-1H-indazol-7-yl)-1-hydroxy-2-methylpropan-2-yl)-N-(4-chloro-3-(trifluoromethyl)phenyl)piperidine-1-carboxamide]
0.0001 to 10 | 0.0001 to 10 | 0.0001 to 10 | 0.0001 to 10 | Cc1ccc(NC(=O)N2CCC(C(C)(C)C(O)c3cc(Cl)cc4cn[nH]c34)CC2)cc1Cl (centres unmarked) [Compound P-0394, 4-(1-(5-chloro-1H-indazol-7-yl)-1-hydroxy-2-methylpropan-2-yl)-N-(3-chloro-4-methylphenyl) piperidine-1-carboxamide]
0.0001 to 10 | 0.0001 to 10 | 0.0001 to 10 | 0.0001 to 10 | CC(C)(C1CCN(C(=O)Nc2cc(Cl)cc(Cl)c2)CC1)C(O)c1cc(Cl)cc2cn[nH]c12 (centres unmarked) [Compound P-0395, 4-(1-(5-chloro-1H-indazol-7-yl)-1-hydroxy-2-methylpropan-2-yl)-N-(3,5-dichlorophenyl) piperidine-1-carboxamide]
0.0001 to 10 | 0.0001 to 10 | 0.0001 to 10 | 0.0001 to 10 | COc1cc(NC(=O)N2CCC(C(C)(C)C(O)c3cc(Cl)cc4cn[nH]c34)CC2)cc(OC)c1 (centres unmarked) [Compound P-0396, 4-(1-(5-chloro-1H-indazol-7-yl)-1-hydroxy-2-methylpropan-2-yl)-N-(3,5-dimethoxyphenyl) piperidine-1-carboxamide]
0.0001 to 10 | 0.0001 to 10 | 0.0001 to 10 | 0.0001 to 10 | Cc1ccc(NC(=O)N2CCC(C(C)(C)C(O)c3cc(Cl)cc4cn[nH]c34)CC2)cc1 (centres unmarked) [Compound P-0397, 4-(1-(5-chloro-1H-indazol-7-yl)-1-hydroxy-2-methylpropan-2-yl)-N-(p-tolyl) piperidine-1-carboxamide]
0.0001 to 10 | 0.0001 to 10 | 0.0001 to 10 | 0.0001 to 10 | CC(C)(C1CCN(C(=O)Nc2ccc(F)cc2F)CC1)C(O)c1cc(Cl)cc2cn[nH]c12 (centres unmarked) [Compound P-0398, 4-(1-(5-chloro-1H-indazol-7-yl)-1-hydroxy-2-methylpropan-2-yl)-N-(2,4-difluorophenyl) piperidine-1-carboxamide]

The next lines start with the molecule.

SMILES | IC50 [1] [µM] | IC50 [2] [µM] | IC50 [3] [µM] | IC50 [4] [µM]
NC(=O)N1CCC(C(F)(F)C(O)c2c(F)c(Cl)cc3cn[nH]c23)CC1 (centres unmarked) [Compound P-0379, 4-(2-(5-chloro-6-fluoro-1H-indazol-7-yl)-1,1-difluoro-2-hydroxyethyl) piperidine-1-carboxamide] | 0.0001 to 10 | 0.0001 to 10 | 0.0001 to 10 | 0.0001 to 10
OC1(c2cc(Cl)cc3cn[nH]c23)C2CC3CC(C2)CC1C3 [Compound P-0380, (1R,2R,5S)-2-(5-chloro-1H-indazol-7-yl)adamantan-2-ol] | 0.0001 to 10 | 0.0001 to 10 | > 10 | 0.0001 to 10
O[C@H](c1cc(Cl)cc2cn[nH]c12)C12CCC(CC1)CC2 [Compound P-0381, (S)-bicyclo[2.2.2] octan-1-yl(5-chloro-1H-indazol-7-yl)methanol] | 0.0001 to 10 | 0.0001 to 10 | 0.0001 to 10 | 0.0001 to 10
O[C@@H](c1cc(Cl)cc2cn[nH]c12)C12CCC(CC1)CC2 [Compound P-0382, (R)-bicyclo[2.2.2] octan-1-yl(5-chloro-1H-indazol-7-yl)methanol] | 0.0001 to 10 | > 200 | 0.0001 to 10 | > 10
CC(C)(C)OC(=O)N1CCC(C(C)(C)[C@H](O)c2c(F)c(Cl)cc3cn[nH]c23)CC1 [Compound P-0383, tert-butyl (S)-4-(1-(5-chloro-6-fluoro-1H-indazol-7-yl)-1-hydroxy-2-methylpropan-2-yl)piperidine-1-carboxylate] | 0.0001 to 10 | 0.0001 to 10 | 0.0001 to 10 | 0.0001 to 10
CC(C)(C)OC(=O)N1CCC(C(C)(C)[C@@H](O)c2c(F)c(Cl)cc3cn[nH]c23)CC1 [Compound P-0384, tert-butyl (R)-4-(1-(5-chloro-6-fluoro-1H-indazol-7-yl)-1-hydroxy-2-methylpropan-2-yl)piperidine-1-carboxylate] | 0.0001 to 10 | 0.0001 to 10 | > 10 | > 10
CC(C)(C1CCN(C(=O)NC(=O)c2ccccc2)CC1)C(O)c1cc(Cl)cc2cn[nH]c12 (centres unmarked) [Compound P-0385, N-benzoyl-4-(1-(5-chloro-1H-indazol-7-yl)-1-hydroxy-2-methylpropan-2-yl)piperidine-1-carboxamide] | 0.0001 to 10 | 0.0001 to 10 | 0.0001 to 10 | 0.0001 to 10
CC(C)(C1CCN(C(=O)NCc2ccccc2)CC1)C(O)c1cc(Cl)cc2cn[nH]c12 (centres unmarked) [Compound P-0386, N-benzyl-4-(1-(5-chloro-1H-indazol-7-yl)-1-hydroxy-2-methylpropan-2-yl)piperidine-1-carboxamide] | 0.0001 to 10 | 0.0001 to 10 | 0.0001 to 10 | 0.0001 to 10

— US10508085B2, “Compounds and methods for IDO and TDO modulation, and indications therefor” (Plexxikon Inc., priority 2016, dated 2019)
